Data as given in patent publication US10239883B2, “4-imidazopyridazin-1-yl-benzamides as BTK inhibitors” (Merck Sharp & Dohme B.V., priority 2011, dated 2019).

Experiments:
[1] = biological target: Lck enzyme (Homo sapiens (Human), UniProt P06239); assay: Lck enzyme activity, IMAP fluorescence polarization assay; conditions: 60 min pre-incubation, 6 μM ATP, bin bound in μM
[2] = biological target: Lyn enzyme (Homo sapiens (Human), UniProt P07948); assay: Lyn enzyme activity, IMAP fluorescence polarization assay; conditions: for EC50 Lyn activity values: IMAP, 60 min pre-incubation, 2 μM ATP, bin bound in μM
Chain of Lyn enzyme (P07948 whole entry): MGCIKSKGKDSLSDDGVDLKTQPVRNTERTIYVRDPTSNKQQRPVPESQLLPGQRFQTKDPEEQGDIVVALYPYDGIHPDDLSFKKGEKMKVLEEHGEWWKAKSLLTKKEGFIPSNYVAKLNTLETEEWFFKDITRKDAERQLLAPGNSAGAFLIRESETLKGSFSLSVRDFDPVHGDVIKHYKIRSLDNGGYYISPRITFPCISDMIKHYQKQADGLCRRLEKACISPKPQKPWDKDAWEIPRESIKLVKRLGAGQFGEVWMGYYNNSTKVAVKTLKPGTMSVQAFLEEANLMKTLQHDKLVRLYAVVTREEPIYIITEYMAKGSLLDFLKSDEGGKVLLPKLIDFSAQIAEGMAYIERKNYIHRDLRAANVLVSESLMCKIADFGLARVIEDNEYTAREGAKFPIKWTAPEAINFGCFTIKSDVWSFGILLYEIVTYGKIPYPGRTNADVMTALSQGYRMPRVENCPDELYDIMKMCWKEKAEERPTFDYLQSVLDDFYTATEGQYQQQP

[3] = biological target: Btk enzyme (His-Btk) (Homo sapiens (Human), UniProt Q06187); assay: Btk enzyme activity, IMAP fluorescence polarization assay; conditions: 60 min pre-incubation, 5 μM ATP
Chain of Btk enzyme (His-Btk) (Q06187 whole entry): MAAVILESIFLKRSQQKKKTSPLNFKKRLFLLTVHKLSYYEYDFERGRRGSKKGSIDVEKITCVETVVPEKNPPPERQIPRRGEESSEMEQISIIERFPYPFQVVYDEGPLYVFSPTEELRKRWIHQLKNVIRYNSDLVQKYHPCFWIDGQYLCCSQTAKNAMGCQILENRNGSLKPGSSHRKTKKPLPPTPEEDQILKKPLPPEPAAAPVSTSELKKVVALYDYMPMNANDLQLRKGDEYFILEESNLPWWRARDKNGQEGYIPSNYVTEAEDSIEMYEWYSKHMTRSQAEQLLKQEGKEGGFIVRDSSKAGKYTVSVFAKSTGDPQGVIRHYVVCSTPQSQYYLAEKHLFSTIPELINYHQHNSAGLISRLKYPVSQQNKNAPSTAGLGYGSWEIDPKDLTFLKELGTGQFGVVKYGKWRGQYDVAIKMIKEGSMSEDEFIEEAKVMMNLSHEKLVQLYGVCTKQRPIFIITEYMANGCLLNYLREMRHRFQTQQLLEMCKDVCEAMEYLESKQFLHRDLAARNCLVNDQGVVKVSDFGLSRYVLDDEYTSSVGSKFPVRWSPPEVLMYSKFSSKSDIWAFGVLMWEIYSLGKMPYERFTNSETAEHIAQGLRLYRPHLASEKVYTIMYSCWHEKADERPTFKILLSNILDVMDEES

Chain of Lck enzyme (P06239 whole entry): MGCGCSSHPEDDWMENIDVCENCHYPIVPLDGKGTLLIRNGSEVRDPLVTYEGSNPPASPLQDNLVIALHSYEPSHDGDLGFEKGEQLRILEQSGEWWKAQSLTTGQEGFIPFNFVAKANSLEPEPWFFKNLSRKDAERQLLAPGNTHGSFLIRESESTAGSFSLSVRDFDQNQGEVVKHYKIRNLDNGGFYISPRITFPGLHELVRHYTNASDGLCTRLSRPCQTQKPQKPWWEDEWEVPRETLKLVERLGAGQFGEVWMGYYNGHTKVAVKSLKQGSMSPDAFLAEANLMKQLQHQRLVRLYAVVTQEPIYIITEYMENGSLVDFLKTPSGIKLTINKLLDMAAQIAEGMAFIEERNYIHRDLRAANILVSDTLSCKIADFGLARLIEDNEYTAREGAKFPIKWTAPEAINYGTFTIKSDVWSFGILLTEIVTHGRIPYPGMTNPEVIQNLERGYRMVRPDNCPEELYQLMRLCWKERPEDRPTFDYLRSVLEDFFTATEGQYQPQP

C=CC(=O)N1CCC[C@H]1c1nc(-c2ccc(C(=O)Nc3cc(C#N)ccn3)cc2)c2c(N)nccn12 [Example 122, (S)-4-(3-(1-acryloylpyrrolidin-2-yl)-8-aminoimidazo[1,5-a]pyrazin-1-yl)-N-(4-cyanopyridin-2-yl)benzamide]
EC50 Lck activity values [1]: <1 µM

C=CC(=O)N1CCC[C@H]1c1nc(-c2ccc(C(=O)Nc3cc(CCC)ccn3)cc2)c2c(N)nccn12 [Example 125, (S)-4-(3-(1-acryloylpyrrolidin-2-yl)-8-aminoimidazo[1,5-a]pyrazin-1-yl)-N-(4-propylpyridin-2-yl)benzamide]
EC50 Lck activity values [1]: <1 µM
EC50 Lyn activity values [2]: <1 µM

C=CC(=O)N1CCC[C@H]1c1nc(-c2ccc(C(=O)Nc3cc(-c4ccccc4)ccn3)cc2)c2c(N)nccn12 [Example 133, (S)-4-(3-(1-acryloylpyrrolidin-2-yl)-8-aminoimidazo[1,5-a]pyrazin-1-yl)-N-(4-phenylpyridin-2-yl)benzamide]
EC50 Lck activity values [1]: <1 µM
EC50 Lyn activity values [2]: <1 µM

CC#CC(=O)N1CCC[C@H]1c1nc(-c2ccc(C(=O)Nc3nccs3)cc2)c2c(N)nccn12 [Example 60, (S)-4-(8-amino-3-(1-but-2-ynoylpyrrolidin-2-yl)imidazo[1,5-a]pyrazin-1-yl)-N-(thiazol-2-yl)benzamide]
EC50 Btk activity values ([3]; bin bound in nM): <100 nM
EC50 Lck activity values [1]: <1 µM
EC50 [2]: 100 to 1000 nM
EC50 Lyn activity values [2]: <1 µM

C=CC(=O)N1CCC[C@H]1c1nc(-c2ccc(C(=O)Nc3cc(C(F)(F)F)ccn3)cc2)c2c(N)nccn12 [Example 62, (S)-4-(3-(1-acryloylpyrrolidin-2-yl)-8-aminoimidazo[1,5-a]pyrazin-1-yl)-N-(4-(trifluoromethyl)pyridin-2-yl)benzamide]
EC50 Lck activity values [1]: <1 µM

C=CC(=O)N1CCC[C@H]1c1nc(-c2ccc(C(=O)Nc3cc(CC)ccn3)cc2)c2c(N)nccn12 [Example 126, (S)-4-(3-(1-acryloylpyrrolidin-2-yl)-8-aminoimidazo[1,5-a]pyrazin-1-yl)-N-(4-ethylpyridin-2-yl)benzamide]
EC50 Lck activity values [1]: <1 µM
EC50 Lyn activity values [2]: <1 µM

Nc1nccn2c([C@@H]3CCCN3C(=O)/C=C/c3ccccc3)nc(-c3ccc(C(=O)Nc4ccccn4)cc3)c12 [Example 104, (S,E)-4-(8-amino-3-(1-cinnamoylpyrrolidin-2-yl)imidazo[1,5-a]pyrazin-1-yl)-N-(pyridin-2-yl)benzamide]
EC50 Btk activity values ([3]; bin bound in μM): <1000 nM
EC50 Lck activity values [1]: <1 µM

C=CC(=O)N1CCC[C@H]1c1nc(-c2ccc(C(=O)Nc3cc(C)ccn3)cc2)c2c(N)nccn12 [Example 124, (S)-4-(3-(1-acryloylpyrrolidin-2-yl)-8-aminoimidazo[1,5-a]pyrazin-1-yl)-N-(4-methylpyridin-2-yl)benzamide]
EC50 Lck activity values [1]: <1 µM
EC50 Lyn activity values [2]: <1 µM

CCCc1ccnc(NC(=O)c2ccc(-c3nc([C@H](C)N(C)C(=O)/C=C/CN(C)C)n4ccnc(N)c34)cc2)c1 [Example 76, (S,E)-4-(8-amino-3-(1-(4-(dimethylamino)-N-methylbut-2-enamido)ethyl)imidazo[1,5-a]pyrazin-1-yl)-N-(4-propylpyridin-2-yl)benzamide]
EC50 Lck activity values [1]: <1 µM

CC#CC(=O)N1CCC[C@H]1c1nc(-c2ccc(C(=O)Nc3cc(-c4ccccc4)ccn3)cc2)c2c(N)nccn12 [Example 132, (S)-4-(8-amino-3-(1-but-2-ynoylpyrrolidin-2-yl)imidazo[1,5-a]pyrazin-1-yl)-N-(4-phenylpyridin-2-yl)benzamide]
EC50 Lck activity values [1]: <1 µM

C=CC(=O)N1CCCC[C@H]1c1nc(-c2ccc(C(=O)Nc3ccccn3)cc2C)c2c(N)nccn12 [Example 68, 4-(3-((S)-1-acryloylpiperidin-2-yl)-8-aminoimidazo[1,5-a]pyrazin-1-yl)-3-methyl-N-(pyridin-2-yl)benzamide]
EC50 Btk activity values ([3]; bin bound in μM): <1000 nM

Nc1nccn2c([C@@H]3CCCCN3C(=O)c3ccnc(Cl)n3)nc(-c3ccc(C(=O)Nc4cc(F)ccn4)cc3)c12 [Example 80, (S)-4-(8-amino-3-(1-(2-chloropyrimidine-4-carbonyl)piperidin-2-yl)imidazo[1,5-a]pyrazin-1-yl)-N-(4-fluoropyridin-2-yl)benzamide]
EC50 Btk activity values ([3]; bin bound in nM): <100 nM

CCCc1ccnc(NC(=O)c2ccc(-c3nc([C@@H]4CCCN4C(=O)/C=C/COC)n4ccnc(N)c34)c(C)c2)c1 [Example 87, 4-(8-amino-3-((S)-1-((E)-4-methoxybut-2-enoyl)pyrrolidin-2-yl)imidazo[1,5-a]pyrazin-1-yl)-3-methyl-N-(4-propylpyridin-2-yl)benzamide]
EC50 Btk activity values ([3]; bin bound in μM): <1000 nM

CC#CC(=O)N1CCCC[C@H]1c1nc(-c2ccc(C(=O)Nc3cc(CCC)ccn3)cc2)c2c(N)nccn12 [Example 64, (S)-4-(8-amino-3-(1-but-2-ynoylpiperidin-2-yl)imidazo[1,5-a]pyrazin-1-yl)-N-(4-propylpyridin-2-yl)benzamide]
EC50 Lck activity values [1]: <1 µM

Nc1nccn2c([C@@H]3CCCN3C(=O)c3ccnc(Cl)n3)nc(-c3ccc(C(=O)Nc4ccccn4)c(F)c3)c12 [Example 84, (S)-4-(8-amino-3-(1-(2-chloropyrimidine-4-carbonyl)pyrrolidin-2-yl)imidazo[1,5-a]pyrazin-1-yl)-2-fluoro-N-(pyridin-2-yl)benzamide]
EC50 Btk activity values ([3]; bin bound in nM): <100 nM

COC/C=C/C(=O)N1CCC[C@H]1c1nc(-c2ccc(C(=O)Nc3ccccn3)cc2)c2c(N)nccn12 [Example 4, (S,E)-4-(8-amino-3-(1-(4-methoxybut-2-enoyl)pyrrolidin-2-yl)imidazo[1,5-a]pyrazin-1-yl)-N-(pyridin-2-yl)benzamide]
EC50 Btk activity values ([3]; bin bound in nM): <100 nM

COC/C=C/C(=O)N1CCC[C@H]1c1nc(-c2ccc(C(=O)Nc3cc(C(C)C)ccn3)cc2)c2c(N)nccn12 [Example 58, (S,E)-4-(8-amino-3-(1-(4-methoxybut-2-enoyl)pyrrolidin-2-yl)imidazo[1,5-a]pyrazin-1-yl)-N-(4-isopropylpyridin-2-yl)benzamide]
EC50 Btk activity values ([3]; bin bound in nM): <100 nM

Nc1nccn2c([C@@H]3CCCCN3C(=O)c3ccnc(Cl)n3)nc(-c3ccc(C(=O)Nc4cccnn4)cc3)c12 [Example 74, (S)-4-(8-amino-3-(1-(2-chloropyrimidine-4-carbonyl)piperidin-2-yl)imidazo[1,5-a]pyrazin-1-yl)-N-(pyridazin-3-yl)benzamide]
EC50 Btk activity values ([3]; bin bound in μM): <1000 nM

CN(C)CC#CC(=O)N1CCC[C@H]1c1nc(-c2ccc(C(=O)Nc3ccccn3)cc2)c2c(N)nccn12 [Example 40, (S)-4-(8-Amino-3-(1-(4-(dimethylamino)but-2-ynoyl)pyrrolidin-2-yl)imidazo[1,5-a]pyrazin-1-yl)-N-(pyridin-2-yl)benzamide]
EC50 Btk activity values ([3]; bin bound in nM): <100 nM

CC#CC(=O)N1CCC[C@H]1c1nc(-c2ccc(C(=O)Nc3ccccn3)c(OC)c2)c2c(N)nccn12 [Example 99, (S)-4-(8-amino-3-(1-but-2-ynoylpyrrolidin-2-yl)imidazo[1,5-a]pyrazin-1-yl)-2-methoxy-N-(pyridin-2-yl)benzamide]
EC50 Btk activity values ([3]; bin bound in nM): <100 nM
